# Experimental data from patent publication US12139472B2, “Inhibitors of advanced glycation end products” (priority 2019, dated 2024).
# Legend:
# [1] = Preparation of dosing solutions in 0.5% methyl cellulose and 0.1% Tween 20 in water; format: physicochemical; conditions: 0.5% methyl cellulose
# Experimental: Compound 5 (PTG-630 free base) and Compound 19 (PTG-630 HCl salt) solutions were prepared in 0.5% methyl cellulose and 0.1% Tween 20 in water for administration to animals by oral gavage (PO).
# Compound 5 was administered at 10 mg/kg and 100 mg/kg. […] The solution was vortexed vigorously for minutes and then sonicated in a water bath for 5 min. The solution remained as a thick creamy yellowish suspension at pH 8. The solution for the 10 mg/kg free base dose (2 mg/ml solution) was easier to prepare. […] The final solution that was administered was a clear, light yellowish solution with few small particulates in suspension.
# Compound 19 was administered at 10 mg/kg. […] The solution (2 mg/ml) was clear yellowish (although lighter than the Compound 5 solution at 2 mg/ml) with no particulates in suspension. The pH decreased to 3.
# CYP1A = target: T1, CYP1A (Homo sapiens, UniProt P05177); assay: CYP1A inhibition (HLM) phenacetin; format: in vitro ADME
# T1 construct: Two studies were conducted in human liver microsomes (HLM); tissue Eurofins G232 panel; host or cells: human liver microsomes
# T1 sequence (P05177 1-516): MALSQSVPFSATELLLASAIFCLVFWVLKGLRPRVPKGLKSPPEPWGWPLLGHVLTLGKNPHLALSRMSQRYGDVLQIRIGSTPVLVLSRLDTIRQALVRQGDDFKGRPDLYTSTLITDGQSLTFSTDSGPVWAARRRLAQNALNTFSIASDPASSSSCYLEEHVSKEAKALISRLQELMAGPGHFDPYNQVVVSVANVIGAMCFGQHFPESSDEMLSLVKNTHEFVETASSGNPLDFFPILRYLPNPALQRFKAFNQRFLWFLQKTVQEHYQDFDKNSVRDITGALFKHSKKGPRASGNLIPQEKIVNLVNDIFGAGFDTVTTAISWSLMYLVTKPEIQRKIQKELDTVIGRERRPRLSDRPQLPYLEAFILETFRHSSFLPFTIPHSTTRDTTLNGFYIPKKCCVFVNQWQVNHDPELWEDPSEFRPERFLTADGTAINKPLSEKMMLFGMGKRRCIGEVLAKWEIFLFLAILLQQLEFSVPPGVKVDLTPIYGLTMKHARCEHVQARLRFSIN
# Experimental: (§1) Compound 5 (PTG-630 free base) and 7 additional compounds for CYP3A P450 inhibition.
# (§2) Two studies were conducted in human liver microsomes (HLM). Lead candidate PTG-630 was tested using the Eurofins G232 panel (Drug Metab Dispos. 2001 January; 29(1):23-9), where inhibition was measured against seven CYP enzymes; CYP3A4 was tested using two different substrates, midazolam and testosterone. In a second study, inhibition of CYP3A4 (midazolam substrate only) was compared for 8 compounds of interest. The test protocol involved one-point measurements in duplicate, where inhibition was measured at a fixed 10 μM concentration of candidate inhibitors. In all cases, the substrate for each CYP enzyme was at a concentration equal to its specific Km value that was independently obtained from an 8-point dose-response study. Based on the observed value for percent inhibition for each test compound, we calculated of an IC50 assuming a competitive mode of inhibition. If percent inhibition for an inhibitor at a concentration of [I] is denoted by P, then: IC50=[I]*(100−P)/P In the single-point assay, [I] is 10 μM. If measured inhibition is 10%, then IC50=10*(100-10)/10=90 μM. […] As discussed in Lin et al. (J Pharm Sci. 2007 September; 96(9):2485-93; doi: 10.1002/jps.20884), CYP inhibition is broadly interpreted as being “potent” if IC50<1 μM, “moderate” if 1 μM<IC50<10 μM, and “weak” if IC50>10 μM.
# CYP2C8 = target: T2, CYP2C8 (Homo sapiens, UniProt P10632); format: in vitro ADME; conditions: microsomes
# T2 construct: Two studies were conducted in human liver microsomes (HLM); tissue Eurofins G232 panel; host or cells: human liver microsomes
# T2 sequence (P10632 1-490): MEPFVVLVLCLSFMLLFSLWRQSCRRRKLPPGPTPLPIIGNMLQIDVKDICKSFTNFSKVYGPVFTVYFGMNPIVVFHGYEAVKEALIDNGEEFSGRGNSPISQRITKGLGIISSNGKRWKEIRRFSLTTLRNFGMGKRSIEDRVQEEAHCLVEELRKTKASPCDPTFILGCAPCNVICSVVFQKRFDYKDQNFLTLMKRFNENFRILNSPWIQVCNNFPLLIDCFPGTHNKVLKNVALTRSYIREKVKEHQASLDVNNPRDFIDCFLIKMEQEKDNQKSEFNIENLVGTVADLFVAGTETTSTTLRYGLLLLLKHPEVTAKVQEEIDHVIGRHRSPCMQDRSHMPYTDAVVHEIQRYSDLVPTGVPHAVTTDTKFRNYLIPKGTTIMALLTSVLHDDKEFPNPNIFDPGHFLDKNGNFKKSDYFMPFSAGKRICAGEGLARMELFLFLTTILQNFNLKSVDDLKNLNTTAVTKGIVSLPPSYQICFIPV
# Experimental: as §1, §2
# CYP2C19 = target: T3, CYP2C19 (Homo sapiens, UniProt P33261); assay: CYP2C19 inhibition (HLM), omeprazole; format: in vitro ADME
# T3 construct: Two studies were conducted in human liver microsomes (HLM); tissue Eurofins G232 panel; host or cells: human liver microsomes
# T3 sequence (P33261 whole entry): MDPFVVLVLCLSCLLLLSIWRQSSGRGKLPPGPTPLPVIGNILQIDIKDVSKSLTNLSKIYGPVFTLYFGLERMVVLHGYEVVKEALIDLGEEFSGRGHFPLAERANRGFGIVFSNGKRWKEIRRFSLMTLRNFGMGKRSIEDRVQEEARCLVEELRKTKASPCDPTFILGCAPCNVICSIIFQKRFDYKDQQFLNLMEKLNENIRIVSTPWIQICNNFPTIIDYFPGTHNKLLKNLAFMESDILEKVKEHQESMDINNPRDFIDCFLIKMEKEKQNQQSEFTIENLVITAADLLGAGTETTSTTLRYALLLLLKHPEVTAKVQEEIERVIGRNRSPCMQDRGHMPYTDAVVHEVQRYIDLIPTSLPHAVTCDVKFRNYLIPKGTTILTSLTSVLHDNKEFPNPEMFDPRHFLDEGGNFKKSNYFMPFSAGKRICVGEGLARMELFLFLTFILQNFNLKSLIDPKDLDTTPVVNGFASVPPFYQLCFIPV
# Experimental: as §1, §2
# CYP2C9 = target: T4, CYP2C9 (Homo sapiens, UniProt P11712); assay: CYP2C9 inhibition (HLM), diclofenac; format: in vitro ADME
# T4 construct: Two studies were conducted in human liver microsomes (HLM); tissue Eurofins G232 panel; host or cells: human liver microsomes
# T4 sequence (P11712 whole entry): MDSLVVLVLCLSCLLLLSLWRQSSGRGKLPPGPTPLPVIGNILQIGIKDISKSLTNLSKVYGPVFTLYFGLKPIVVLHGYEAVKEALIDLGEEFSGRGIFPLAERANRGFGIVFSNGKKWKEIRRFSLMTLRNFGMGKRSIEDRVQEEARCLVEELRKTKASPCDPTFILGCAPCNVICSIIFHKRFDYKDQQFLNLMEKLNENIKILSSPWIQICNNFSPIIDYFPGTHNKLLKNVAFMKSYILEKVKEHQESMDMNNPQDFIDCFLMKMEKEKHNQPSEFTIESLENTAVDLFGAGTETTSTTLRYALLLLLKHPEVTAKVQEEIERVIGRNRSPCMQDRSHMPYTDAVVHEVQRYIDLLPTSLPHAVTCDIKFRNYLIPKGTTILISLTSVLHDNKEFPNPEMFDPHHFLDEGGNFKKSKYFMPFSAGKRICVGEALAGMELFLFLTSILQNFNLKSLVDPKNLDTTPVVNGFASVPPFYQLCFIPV
# Experimental: as §1, §2
# CYP2D6 = target: T5, CYP2D6 (Homo sapiens, UniProt P10635); assay: CYP2D6 inhibition (HLM), dextromethorphan; format: in vitro ADME
# T5 construct: Two studies were conducted in human liver microsomes (HLM); tissue Eurofins G232 panel; host or cells: human liver microsomes
# T5 sequence (P10635 whole entry): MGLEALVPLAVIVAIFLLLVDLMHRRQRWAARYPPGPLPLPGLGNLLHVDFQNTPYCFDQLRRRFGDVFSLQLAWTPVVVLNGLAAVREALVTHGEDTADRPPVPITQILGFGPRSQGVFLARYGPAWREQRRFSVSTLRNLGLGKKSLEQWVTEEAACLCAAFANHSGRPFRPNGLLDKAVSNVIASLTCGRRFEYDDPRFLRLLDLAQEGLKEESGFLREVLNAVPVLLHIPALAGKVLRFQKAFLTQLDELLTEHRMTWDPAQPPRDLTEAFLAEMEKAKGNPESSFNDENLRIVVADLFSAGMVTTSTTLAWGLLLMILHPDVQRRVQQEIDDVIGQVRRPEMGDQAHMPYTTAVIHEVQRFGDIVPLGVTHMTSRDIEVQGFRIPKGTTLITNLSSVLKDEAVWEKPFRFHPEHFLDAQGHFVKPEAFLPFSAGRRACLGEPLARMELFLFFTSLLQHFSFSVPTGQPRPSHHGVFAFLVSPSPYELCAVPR
# Experimental: as §1, §2
# seven CYP enzymes = assay: Eurofins G232 panel, CYP inhibition in human liver microsomes; format: in vitro ADME; conditions: HLM, 10 μM
# Experimental: as §2
structure (smiles),measurement,setting,value
Cc1ncc(CN2CCOCC2)c(-c2ncc[nH]2)c1O [PTG-630],dissolution in vehicle,[1]; 2 mg/ml solution (10 mg/kg dose),few small particles remained
same,dissolution in vehicle,[1]; 20 mg/ml solution (100 mg/kg dose),difficult to dissolve
same,IC50,"CYP1A; phenacetin, from one-point % inhibition at 10 μM, IC50=[I]*(100−P)/P, read-out: Estimated IC50",52.1 µM
same,P % inhib,"CYP1A; substrate phenacetin at Km, Inhib Conc. 1.0E−05 M",16.1%
same,IC50,CYP2C8,37 µM
same,P % inhib,CYP2C8,21.3%
same,IC50,"CYP2C19; omeprazole, from one-point % inhibition at 10 μM, IC50=[I]*(100−P)/P, read-out: Estimated IC50",26.4 µM
same,P % inhib,"CYP2C19; substrate omeprazole at Km, Inhib Conc. 1.0E−05 M",27.5%
same,IC50,"CYP2C9; diclofenac, from one-point % inhibition at 10 μM, IC50=[I]*(100−P)/P, read-out: Estimated IC50",284 µM
same,P % inhib,"CYP2C9; substrate diclofenac at Km, Inhib Conc. 1.0E−05 M",3.4%
same,Estimated IC50,"CYP2D6; dextromethorphan, from one-point % inhibition at 10 μM, IC50=[I]*(100−P)/P",— None
same,P % inhib,"CYP2D6; substrate dextromethorphan at Km, Inhib Conc. 1.0E−05 M",−0.83%
same,CYP inhibition (in words),seven CYP enzymes,weak to undetectable
